PubChem BioAssay AID248 (DTP/NCI, 2004)
Inconclusive results and toxic doses are left out. Rule as the data show it: active = T/C of 150% or more; inactive = T/C below 125%.

Test system: L1210 leukemia ip in BDF1 mice, survival T/C
Assay: NCI In Vivo Anticancer Drug Screen. Data for tumor model L1210 Leukemia (intraperitoneal) in B6D2F1 (BDF1) mice
Conditions: endpoint: mean survival time, higher = longer survival
In short: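 Ratio derived from survival: compound-dosed mice over vehicle-dosed mice, all bearing a transplantable tumor.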

[1] = dose: 100.0 mg/kg/injection, schedule: Q01DX009 (ip), vehicle: Klucel (hydroxypropylcellulose) (HPC)
[2] = dose: 200.0 mg/kg/injection, schedule: Q01DX009 (ip), vehicle: Klucel (hydroxypropylcellulose) (HPC)
[3] = dose: 400.0 mg/kg/injection, schedule: Q01DX009 (ip), vehicle: Klucel (hydroxypropylcellulose) (HPC)
[4] = dose: 100.0 mg/kg/injection, schedule: Q04DX003 (ip), vehicle: Klucel (hydroxypropylcellulose) (HPC)
[5] = dose: 200.0 mg/kg/injection, schedule: Q04DX003 (ip), vehicle: Klucel (hydroxypropylcellulose) (HPC)
[6] = dose: 400.0 mg/kg/injection, schedule: Q04DX003 (ip), vehicle: Klucel (hydroxypropylcellulose) (HPC)
[7] = dose: 100.0 mg/kg/injection, schedule: Q04DX003 (ip), vehicle: saline with Tween-80
[8] = dose: 200.0 mg/kg/injection, schedule: Q04DX003 (ip), vehicle: saline with Tween-80
[9] = dose: 400.0 mg/kg/injection, schedule: Q04DX003 (ip), vehicle: saline with Tween-80
[10] = dose: 100.0 mg/kg/injection, schedule: Q01DX001 (ip), vehicle: saline
[11] = dose: 200.0 mg/kg/injection, schedule: Q01DX001 (ip), vehicle: saline
[12] = dose: 400.0 mg/kg/injection, schedule: Q01DX001 (ip), vehicle: saline
[13] = dose: 50.0 mg/kg/injection, schedule: Q04DX003 (ip), vehicle: saline with Tween-80
[14] = dose: 100.0 mg/kg/injection, schedule: Q04DX003 (ip), vehicle: saline

Measured: T/C

N=C(N)SC1c2ccccc2-c2ccc(Br)cc21 (configuration not stated)
inactive: dose: 75.0 mg/kg/injection, schedule: Q01DX001 (ip), vehicle: carboxymethylcellulose (CMC) 104 % of control | dose: 150.0 mg/kg/injection, schedule: Q01DX001 (ip), vehicle: carboxymethylcellulose (CMC) 91 % of control

O=C(Nc1ccc(CCO)cc1)Nc1ccccc1F
inactive: [1] 97 % of control | [2] 88 % of control | [3] 111 % of control

COc1cccc(C(c2ccccc2)C(CC(=O)O)CC(=O)O)c1 (configuration not stated)
inactive: dose: 75.0 mg/kg/injection, schedule: Q04DX002 (ip), vehicle: Klucel (hydroxypropylcellulose) (HPC) 101 % of control | dose: 150.0 mg/kg/injection, schedule: Q04DX002 (ip), vehicle: Klucel (hydroxypropylcellulose) (HPC) 108 % of control | dose: 300.0 mg/kg/injection, schedule: Q04DX002 (ip), vehicle: Klucel (hydroxypropylcellulose) (HPC) 97 % of control

COC(=O)C1C2CC3c4[nH]c5ccc(OC)cc5c4CCN3CC2CC(OC(=O)c2cc(OC)c(OC)c(OC)c2)C1OC (configuration not stated)
inactive: dose: 10.0 mg/kg/injection, schedule: Q04DX003 (ip), vehicle: Klucel (hydroxypropylcellulose) (HPC) 102 % of control | dose: 20.0 mg/kg/injection, schedule: Q04DX003 (ip), vehicle: Klucel (hydroxypropylcellulose) (HPC) 98 % of control | dose: 22.81 mg/kg/injection, schedule: Q01DX009 (ip), vehicle: Klucel (hydroxypropylcellulose) (HPC) 111 % of control | dose: 40.0 mg/kg/injection, schedule: Q04DX003 (ip), vehicle: Klucel (hydroxypropylcellulose) (HPC) 114 % of control | dose: 45.62 mg/kg/injection, schedule: Q01DX009 (ip), vehicle: Klucel (hydroxypropylcellulose) (HPC) 91 % of control | dose: 80.0 mg/kg/injection, schedule: Q04DX003 (ip), vehicle: Klucel (hydroxypropylcellulose) (HPC) 96 % of control | dose: 91.25 mg/kg/injection, schedule: Q01DX009 (ip), vehicle: Klucel (hydroxypropylcellulose) (HPC) 94 % of control | dose: 160.0 mg/kg/injection, schedule: Q04DX003 (ip), vehicle: Klucel (hydroxypropylcellulose) (HPC) 93 % of control | dose: 240.0 mg/kg/injection, schedule: Q04DX003 (ip), vehicle: Klucel (hydroxypropylcellulose) (HPC) 107 % of control | dose: 365.0 mg/kg/injection, schedule: Q04DX003 (ip), vehicle: Klucel (hydroxypropylcellulose) (HPC) 102 % of control

O=C(COc1ccc(Cl)c(Cl)c1)Nc1ccc[n+](Cc2ccc(S(=O)(=O)F)c(Cl)c2)c1
inactive: [4] 98 % of control | [5] 93 % of control | [6] 97 % of control

N#CCCP(=O)(CCC#N)CCP(=O)(CCC#N)CCC#N
inactive: [7] 91 % of control | [8] 91 % of control | [9] 94 % of control

O=P(CCCCCCCCCCP(=O)(c1ccccc1)c1ccccc1)(c1ccccc1)c1ccccc1
inactive: [10] 91 % of control | [11] 92 % of control | [12] 92 % of control

CCCSCCCCSCCC
inactive: dose: 25.0 mg/kg/injection, schedule: Q04DX003 (ip), vehicle: saline with Tween-80 115 % of control | [13] 104 % of control | dose: 100.0 mg/kg/injection, schedule: Q01DX009 (ip), vehicle: saline with Tween-80 100 % of control | [7] 102 % of control | dose: 200.0 mg/kg/injection, schedule: Q01DX009 (ip), vehicle: saline with Tween-80 109 % of control | [8] 92 % of control | dose: 400.0 mg/kg/injection, schedule: Q01DX009 (ip), vehicle: saline with Tween-80 91 % of control | [9] 95 % of control

COc1cccc(OC)c1CCCl
inactive: [14] 95 % of control | dose: 200.0 mg/kg/injection, schedule: Q04DX003 (ip), vehicle: saline 97 % of control | dose: 400.0 mg/kg/injection, schedule: Q04DX003 (ip), vehicle: saline 110 % of control

COc1ccccc1CN1CCCN(Cc2ccccc2OC)C1c1cccc(OC)c1O
inactive: dose: 50.0 mg/kg/injection, schedule: Q01DX001 (ip), vehicle: saline 95 % of control | [10] 101 % of control | [11] 93 % of control | [12] 93 % of control

Cc1cccc(C(=O)CC(O)(C(F)(F)F)C(F)(F)F)c1
inactive: [13] 98 % of control | [7] 100 % of control | [8] 91 % of control | [9] 102 % of control

CCc1c(C)[nH]c2c1C(=O)CCC2
inactive: dose: 10.0 mg/kg/injection, schedule: Q01DX001 (ip), vehicle: saline 98 % of control | dose: 20.0 mg/kg/injection, schedule: Q01DX001 (ip), vehicle: saline 100 % of control | dose: 40.0 mg/kg/injection, schedule: Q01DX001 (ip), vehicle: saline 105 % of control

N#Cc1ccc(P(=O)(O)O)cc1
inactive: dose: 75.0 mg/kg/injection, schedule: Q01DX001 (ip), vehicle: saline 102 % of control | dose: 150.0 mg/kg/injection, schedule: Q01DX001 (ip), vehicle: saline 94 % of control

COC(=O)CCC(=O)NCCc1cccc(OC)c1
inactive: [4] 97 % of control | [5] 98 % of control | [6] 92 % of control

Nc1nc(SN=Nc2ccc(S(=O)(=O)O)cc2)c2[nH]cnc2n1
inactive: dose: 11.0 mg/kg/injection, schedule: Q01DX Z (ip), vehicle: alkali diluted with saline 110 % of control | dose: 17.0 mg/kg/injection, schedule: Q01DX Z (ip), vehicle: alkali diluted with saline 120 % of control | dose: 25.0 mg/kg/injection, schedule: Q01DX Z (ip), vehicle: alkali diluted with saline 112 % of control | dose: 38.0 mg/kg/injection, schedule: Q01DX Z (ip), vehicle: alkali diluted with saline 104 % of control

CCCCCCCCC(=O)Nc1nc2nc[nH]c2c(=O)[nH]1
inactive: dose: 100.0 mg/kg/injection, schedule: Q01DX001 (ip), vehicle: other 94 % of control | [1] 94 % of control | dose: 200.0 mg/kg/injection, schedule: Q01DX001 (ip), vehicle: other 86 % of control | [2] 90 % of control | dose: 400.0 mg/kg/injection, schedule: Q01DX001 (ip), vehicle: other 86 % of control | [3] 90 % of control

C/C=C(\C)C#N
inactive: dose: 22.0 mg/kg/injection, schedule: Q01DX Z (ip), vehicle: saline 102 % of control | dose: 33.0 mg/kg/injection, schedule: Q01DX Z (ip), vehicle: saline 93 % of control

CCN(CCC[N+](C)(C)C)C(=O)C(c1ccccc1)c1ccccc1
inactive: [14] 93 % of control

CCOC(=O)C1(C(=O)OCC)CCC2Nc3ccccc3C(=O)N21 (configuration not stated)
inactive: dose: 50.0 mg/kg/injection, schedule: Q04DX003 (ip), vehicle: Klucel (hydroxypropylcellulose) (HPC) 99 % of control | [4] 101 % of control | [5] 87 % of control

Cc1ccc(C(C)(O)CC(O)(C(F)(F)F)C(F)(F)F)cc1 (configuration not stated)
inactive: dose: 100.0 mg/kg/injection, schedule: Q01DX001 (ip), vehicle: Klucel (hydroxypropylcellulose) (HPC) 104 % of control | [1] 99 % of control | dose: 200.0 mg/kg/injection, schedule: Q01DX001 (ip), vehicle: Klucel (hydroxypropylcellulose) (HPC) 106 % of control | [2] 99 % of control | dose: 400.0 mg/kg/injection, schedule: Q01DX001 (ip), vehicle: Klucel (hydroxypropylcellulose) (HPC) 96 % of control | [3] 98 % of control

CCOC(=O)C1CCc2c(ccc3ccccc23)N1C(C)=O (configuration not stated)
inactive: [1] 94 % of control | [2] 88 % of control | [3] 91 % of control

CN1CCC2=C(C1)C(c1ccccc1)c1ccccc12 (configuration not stated)
inactive: dose: 25.0 mg/kg/injection, schedule: Q01DX009 (ip), vehicle: saline 90 % of control | dose: 50.0 mg/kg/injection, schedule: Q01DX009 (ip), vehicle: saline 95 % of control | dose: 50.0 mg/kg/injection, schedule: Q04DX003 (ip), vehicle: saline 106 % of control | dose: 100.0 mg/kg/injection, schedule: Q01DX009 (ip), vehicle: saline 102 % of control | [14] 106 % of control

COc1ccc([N+](=O)[O-])cc1NC(=O)Nc1cccc(C(=O)O)c1
inactive: dose: 50.0 mg/kg/injection, schedule: Q01DX009 (ip), vehicle: Klucel (hydroxypropylcellulose) (HPC) 101 % of control | [1] 96 % of control | [2] 86 % of control
